The source made the active and inactive calls. Rule as the data show it, for most assays here: actives have a measured EC50 and inactives only a lower limit.
How the values were obtained:
[1] = molecular target: Luciferin 4-monooxygenase (Photinus pyralis, UniProt P08659); test: firefly luciferase enzyme inhibitors, dose response, biochemical, luminescence (AID 1891)
[2] = Luminescence Cell-Based Dose Confirmation HTS to Identify Inhibitors of Platelet Dense Granule Release. [Related pubchem assays: 1663 (Primary HTS), 1678 (Summary of Project)]; type: functional
[3] = HEp-2 cell cytotoxicity, dose response, cytotoxicity control for RSV inhibitor project, HTS (AID 2410); type: functional; details: human respiratory syncytial virus
[4] = molecular target: T1, Heat shock factor protein 1 (Mus musculus, UniProt P38532); test: HSF1 potentiators in luciferase reporter cells, confirmation, cell-based, NIH3T3, luminescence, dose retest (AID 435004); type: functional;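 also: stress induced by proteasome inhibitor MG132 added 30 min after compound; luciferase reporter driven by HSF1 response element in NIH3T3 cells; actives raise luminescence as potentiators of the MG132 stress response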
T1 sequence (P38532 whole entry): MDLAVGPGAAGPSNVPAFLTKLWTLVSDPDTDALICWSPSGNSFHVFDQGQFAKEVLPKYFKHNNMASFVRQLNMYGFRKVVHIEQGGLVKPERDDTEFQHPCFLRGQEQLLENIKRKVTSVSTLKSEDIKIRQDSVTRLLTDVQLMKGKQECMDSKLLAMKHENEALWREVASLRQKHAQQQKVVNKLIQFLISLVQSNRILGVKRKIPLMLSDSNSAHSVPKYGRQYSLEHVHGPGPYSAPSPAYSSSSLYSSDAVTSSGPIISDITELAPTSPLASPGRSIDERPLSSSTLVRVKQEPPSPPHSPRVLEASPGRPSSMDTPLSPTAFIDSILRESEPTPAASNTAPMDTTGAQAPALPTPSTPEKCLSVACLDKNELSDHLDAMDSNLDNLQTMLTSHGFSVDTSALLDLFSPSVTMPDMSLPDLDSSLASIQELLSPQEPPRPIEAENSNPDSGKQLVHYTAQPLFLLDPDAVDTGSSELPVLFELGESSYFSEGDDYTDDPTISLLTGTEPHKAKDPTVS

[5] = ZM109 Env clade C HIV-1 fusion inhibitors, dose response, HeLa effector, CEM target cells, luciferase, cherry-pick (AID 652058); type: functional, cell-based
[6] = inhibitors of HIV Env-driven cell fusion, dose response, cherry-pick (AID 652057); type: functional, cell-based
[7] = inhibitors of clade B AD8 Env fusion, dose response, cell-based, cherry-pick (AID 652062); type: functional;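 also: luciferase signal from cell-cell fusion driven by HIV-1 clade B AD8 Env; potency is for inhibitors of fusion seen as a drop in luminescence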
cells [8] = type: functional, cell-based
cells [9] = type: functional, cell-based; remark: listed apart in the source
cells [10] = type: functional
[11] = Luminescence Cell-Based Dose Retest to Confirm Inhibitors of Cancer Stem Cells. [Related pubchem assays (depositor defined):AID2717, AID2721]; type: functional; details: Homo sapiens
[12] = molecular target: T1, Heat shock factor protein 1; test: inhibition of MG132-induced HSE-luciferase signal, confirmation, cell-based, NIH3T3, luminescence, dose retest (AID 2382); type: functional;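 also: NIH3T3 fibroblasts with HSF1-driven luciferase reporter stressed by proteasome inhibitor MG132; luminescence from HSF1-driven luciferase expression after 8 hours of MG132 stress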
Cytochrome P450 2C9 = Cytochrome P450 2C9 (Homo sapiens, UniProt P11712)
INS1 = test: beta cell apoptosis inhibitors, cytokine rescue, dose response, luminescence, retest (AID 449756); type: functional, cell-based; details: Rattus norvegicus;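 also: cell death triggered by IL-1 beta plus TNF-alpha plus IFN-gamma mixture; protective hits raise ATP signal compared with cytokine alone wells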
[13] = inhibitors of firefly luciferase expression or activity, dose response, H4 neuroglioma cells, luminescence (AID 1990); type: functional, cell-based
[14] = Luminescence Cell-Based Dose Response HTS to Identify Inhibitors of 5'UTR Stem-Loop Driven Prion Protein mRNA Translation in H4 Neuroglioblastoma Cells. [Related pubchem assays: 1827 (Project Summary), 1813 (Primary HTS)]; type: functional
[15] = inhibitors of SNCA 5'UTR-driven reporter translation, confirmation, H4 neuroglioma cells, luminescence (AID 1988); type: functional, cell-based
[16] = cytotoxicity toward NIH3T3 fibroblasts, dose response, counter-screen, cell-based, ATP luminescence, mouse fibroblasts (AID 2010); type: functional;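 also: cells exposed to compound for about 90 hours before reading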
[17] = inhibitors of intracellular T. cruzi replication, confirmation, NIH3T3 host cells, beta-gal luminescence (AID 2044); type: functional, cell-based;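 also: intracellular parasites grown in NIH/3T3 mouse fibroblasts as host cells; luminescent beta-galactosidase reporter signal from transgenic T. cruzi replicating inside host cells; inhibitors lower the luminescence signal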
[18] = NIH-3T3 fibroblast cytotoxicity, dose response, cytotoxicity control, cell-based, fluorescence, Alamar Blue, secondary assay (AID 2327); type: functional;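 also: NIH-3T3 mouse fibroblasts cultured with fluconazole at 8 µg/mL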
Paired box protein Pax-8 = Paired box protein Pax-8 (Homo sapiens, UniProt Q06710); test: inhibitors of PAX8-driven TPO luciferase reporter, dose response, RMG-I cells, cherry-pick (AID 687027); type: functional, cell-based;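 also: luciferase reporter driven by Pax8 target thyroperoxidase promoter measured by SteadyGlo luminescence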
Cytochrome P450 1A2 = molecular target: T2, Cytochrome P450 1A2 (Homo sapiens, UniProt P05177);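 also: PubChem cytochrome P450 panel assay, CYP1A2 panel member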
T2 sequence (P05177 whole entry): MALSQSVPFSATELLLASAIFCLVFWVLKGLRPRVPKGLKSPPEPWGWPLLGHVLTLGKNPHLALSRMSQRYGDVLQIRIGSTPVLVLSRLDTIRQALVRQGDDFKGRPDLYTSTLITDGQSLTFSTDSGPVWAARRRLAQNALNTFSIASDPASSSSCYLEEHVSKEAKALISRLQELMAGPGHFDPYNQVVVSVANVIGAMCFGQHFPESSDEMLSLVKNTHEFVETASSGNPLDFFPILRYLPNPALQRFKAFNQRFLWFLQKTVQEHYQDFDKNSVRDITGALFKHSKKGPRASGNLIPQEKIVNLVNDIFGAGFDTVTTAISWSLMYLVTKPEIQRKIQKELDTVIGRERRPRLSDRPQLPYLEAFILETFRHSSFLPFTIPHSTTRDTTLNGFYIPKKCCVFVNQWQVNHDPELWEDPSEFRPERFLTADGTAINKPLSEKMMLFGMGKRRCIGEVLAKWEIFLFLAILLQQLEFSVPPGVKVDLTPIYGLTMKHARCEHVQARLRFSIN

[19] = tested on: Streptococcus sp. 'group A'; test: growth inhibition of control SK(-) GAS strain, dose response, counter-screen for streptokinase expression inhibitor project, luminescence, kanamycin, BacTiterGlo, confirmation (AID 1900); type: functional, organism-based
Streptococcus = test: Group A Streptococcus viability loss, dose response, counter-screen for streptokinase expression inhibitor project, luminescence, BacTiterGlo (AID 1915); type: functional, organism-based;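 also: potency for reduction of bacterial viability or growth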

Luciferin 4-monooxygenase, sequence (P08659 whole entry): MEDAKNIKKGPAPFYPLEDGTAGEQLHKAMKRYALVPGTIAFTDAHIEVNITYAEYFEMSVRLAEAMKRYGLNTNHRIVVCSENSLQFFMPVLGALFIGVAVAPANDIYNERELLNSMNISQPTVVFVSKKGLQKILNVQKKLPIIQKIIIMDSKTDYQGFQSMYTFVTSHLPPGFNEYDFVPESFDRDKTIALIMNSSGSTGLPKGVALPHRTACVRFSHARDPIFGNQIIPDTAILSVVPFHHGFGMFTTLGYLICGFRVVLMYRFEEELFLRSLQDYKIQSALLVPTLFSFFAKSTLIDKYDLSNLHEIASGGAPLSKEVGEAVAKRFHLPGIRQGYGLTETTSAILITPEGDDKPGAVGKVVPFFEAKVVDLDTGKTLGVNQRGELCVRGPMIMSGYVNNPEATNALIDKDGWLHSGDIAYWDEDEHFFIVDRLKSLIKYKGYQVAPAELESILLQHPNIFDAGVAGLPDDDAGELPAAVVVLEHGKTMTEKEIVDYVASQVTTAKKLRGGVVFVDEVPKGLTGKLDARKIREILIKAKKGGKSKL
Paired box protein Pax-8, sequence (Q06710 whole entry): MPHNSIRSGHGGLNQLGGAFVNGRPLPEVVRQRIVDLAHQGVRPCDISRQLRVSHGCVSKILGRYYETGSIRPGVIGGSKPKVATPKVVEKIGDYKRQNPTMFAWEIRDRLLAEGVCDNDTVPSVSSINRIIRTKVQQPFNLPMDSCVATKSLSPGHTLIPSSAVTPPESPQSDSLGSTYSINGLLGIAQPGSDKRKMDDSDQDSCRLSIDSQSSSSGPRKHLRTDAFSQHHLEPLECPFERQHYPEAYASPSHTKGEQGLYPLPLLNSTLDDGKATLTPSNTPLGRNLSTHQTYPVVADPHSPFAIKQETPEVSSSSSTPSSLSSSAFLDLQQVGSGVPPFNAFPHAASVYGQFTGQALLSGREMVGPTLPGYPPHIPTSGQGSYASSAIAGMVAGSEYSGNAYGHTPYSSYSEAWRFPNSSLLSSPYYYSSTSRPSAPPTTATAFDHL
Cytochrome P450 2C9, sequence (P11712 whole entry): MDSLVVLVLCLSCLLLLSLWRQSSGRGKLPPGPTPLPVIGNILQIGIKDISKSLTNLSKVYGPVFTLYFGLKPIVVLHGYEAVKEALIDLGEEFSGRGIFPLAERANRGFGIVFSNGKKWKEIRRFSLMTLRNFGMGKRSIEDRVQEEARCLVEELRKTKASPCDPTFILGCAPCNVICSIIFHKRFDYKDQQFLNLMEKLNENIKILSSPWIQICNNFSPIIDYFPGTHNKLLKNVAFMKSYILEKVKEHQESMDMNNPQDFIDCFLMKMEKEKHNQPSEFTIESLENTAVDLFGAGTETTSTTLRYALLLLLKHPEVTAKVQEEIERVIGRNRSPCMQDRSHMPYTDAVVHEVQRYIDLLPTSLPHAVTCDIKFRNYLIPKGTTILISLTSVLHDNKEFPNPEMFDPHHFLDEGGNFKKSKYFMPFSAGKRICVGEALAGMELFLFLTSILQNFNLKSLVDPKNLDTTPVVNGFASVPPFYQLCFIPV

CCc1ccc(-n2c(S)nnc2Cc2ccccc2)cc1
EC50 [1]: > 112 µM (not active) | EC50 [2]: > 112 µM (not active)

Cc1ccc(C(=O)Nc2nc(C(C)(C)C)cs2)s1
CC50 [3]: 3.25 µM (active)

CN(C)c1ccc(/C=N/Nc2nncc3ccccc23)cc1
EC50 [1]: 1.11 µM (active) | EC50 [2]: 2.37 µM (active)

CN(CC(=O)Nc1ccccc1Cl)CC(=O)Nc1c(F)cccc1F
EC50 [4]: > 260 µM (inactive)

C[C@H]1CN([C@@H](C)CO)C(=O)Cc2cc(NC(=O)Nc3cccc4ccccc34)ccc2O[C@H]1CN(C)S(=O)(=O)c1ccc(F)cc1
AC50 [5]: 7.77 µM (active) | AC50 [6]: 3.46 µM (active) | AC50 [7]: 6.07 µM (active)

CC(=O)N1c2ccc(S(=O)(=O)N3CCCCC3)cc2CC1C(=O)Nc1ccccc1C(F)(F)F (stereo not given)
EC50 [1]: > 112 µM (not active) | EC50 [2]: > 112 µM (not active)

O=C1C(=O)c2ccccc2C(O)=C1c1cccc([N+](=O)[O-])c1
CC50 [3]: 14.2 µM (active) | EC50 (cells [8]): 56.5 µM (active) | EC50 (cells [9]): > 350 µM (not active)

Cc1ccc(OCC(=O)OCc2c(C)noc2C)cc1C
IC50 (cells [10]): 22.7 µM (active)

COc1ccccc1N(CC(=O)NC1CCCCC1)S(C)(=O)=O
EC50 (cells [8]): > 350 µM (not active) | EC50 (cells [9]): > 350 µM (not active)

C[C@@H]1CN([C@H](C)CO)C(=O)Cc2cc(NS(=O)(=O)c3ccc(Cl)cc3)ccc2O[C@H]1CN(C)Cc1ccc(C(F)(F)F)cc1
AC50 [11]: 3.11 µM (active)

CCOC(=O)c1cc2nc(-c3ccco3)cc(C(F)(F)F)n2n1
EC50 [1]: > 112 µM (not active) | EC50 [12]: > 195 µM (not active) | EC50 [2]: > 112 µM (not active)

COc1cccc(-c2cn3nc(C)c(C)nc3n2)c1
EC50 [1]: 19.7 µM (active) | EC50 [2]: 6.72 µM (active)

O=C(Oc1ccccc1Cl)c1ccc2c(=O)n3c(nc2c1)CCC3
IC50 (cells [10]): 5.48 µM (active)

CN1C(=O)c2cc(NC(=O)c3cscn3)ccc2OC[C@@H]2O[C@H](CC(=O)NCc3ccc(Cl)c(Cl)c3)CC[C@H]21
AC50 [5]: 6.62 µM (active) | AC50 [6]: 21 µM (active) | AC50 [7]: 40.6 µM (active)

CCOC(=O)CC(=O)CSCC(=O)Nc1ccc(C)cc1
EC50 [4]: > 260 µM (inactive)

O=C(CSC1=N/C(=C/c2ccc(Cl)c(Cl)c2)C(=O)N1c1ccccc1F)NC1CC1
CC50 [3]: 24 µM (active)

CCOc1ccc(C(=O)Nc2ccc(S(=O)(=O)N3C[C@@H]4C[C@@H](C3)c3cccc(=O)n3C4)cc2)cc1
CC50 [3]: 23.7 µM (active)

CC1(C)CC2CC(C)(CN2/C=N/c2sc3c(c2C#N)CC(C)(C)NC3(C)C)C1 (stereo not given)
AC50 [11]: 1.04 µM (active)

Cc1ccccc1CSc1nsc(N)n1
EC50 [4]: > 260 µM (inactive) | AC50 (Cytochrome P450 2C9): 2 µM (inconclusive)

C[C@H](CO)N1C[C@H](C)[C@@H](CN(C)C(=O)NC2CCCCC2)Oc2c(cccc2N(C)C)C1=O
AC50 [5]: 36.3 µM (active) | AC50 [7]: 0.558 µM (active)

O=C(CSC1CS(=O)(=O)c2cc([N+](=O)[O-])ccc21)NNC(=O)c1ccc(Cl)cc1 (stereo not given)
EC50 [4]: > 260 µM (inactive)

Cc1sc2ncnc(SCC(=O)N3CCCC3)c2c1C
EC50 [1]: > 112 µM (not active) | EC50 [2]: > 112 µM (not active)

O=C(Nc1cccc(Cl)c1)Nc1ccccc1C(=O)O
EC50 [1]: 0.654 µM (active) | EC50 [2]: 11.4 µM (active)

O=C(NCC1COc2ccccc2O1)c1cccc(S(=O)(=O)NCc2ccccc2)c1 (stereo not given)
AC50 (INS1): 8.07 µM (active)

CCOC(=O)COc1c(-c2ccc(OC)cc2)oc2ccccc2c1=O
IC50 (cells [10]): 5.55 µM (active)

Cc1cc(SCC(=O)c2cccs2)n2nc(C)c(-c3ccc(Cl)cc3)c2n1
AC50 [11]: 18.1 µM (active)

NC(=O)c1cc2cc(Br)ccc2o/c1=N\Cc1ccccc1
EC50 [4]: > 260 µM (inactive)

COc1ccc(CCNC(=O)c2coc(=O)c(Br)c2)cc1
AC50 [11]: 7.39 µM (active)

O=C(NN1C(=O)NC2(CCCCC2)C1=O)c1ccc(-c2ccc(Cl)cc2)o1
CC50 [3]: 22.3 µM (active)

CCOC(=O)c1c(S(=O)(=O)NCc2ccc(C)o2)c(C)n(C)c1C
EC50 (cells [8]): > 350 µM (not active) | EC50 (cells [9]): > 350 µM (not active)

Cc1cccc2nc(CSc3nc4nncc-4c(O)n3-c3cccc(Cl)c3)cc(=O)n12
AC50 (INS1): 8.23 µM (active)

O=C(CN1CCN(S(=O)(=O)c2ccc3ccccc3c2)CC1)N1CCc2ccccc2C1
CC50 [3]: 25.3 µM (active) | EC50 [13]: 14.4 µM (active) | EC50 [14]: 23 µM (active) | EC50 [15]: > 120 µM (not active)

CC(C)(C)NCC1(CO)SC(N)=NC1=O (stereo not given)
IC50 (cells [10]): 16.4 µM (active) | EC50 [16]: > 30 µM (not active) | EC50 [17]: 3.82 µM (active)

O=C(CSc1nnc(-c2c[nH]c3ccccc23)n1-c1ccc(F)cc1)NCc1ccco1
EC50 [4]: 40.4 µM (active)

CN(C)c1ccc(/C=C2\CCC/C(=C\c3ccccc3)C2=O)cc1
AC50 [11]: 3.81 µM (active)

CCO/C(O)=C1\C(C)=Nc2ncnn2C1c1ccc2c(c1)OCO2 (stereo not given)
EC50 [4]: > 260 µM (inactive)

CC1=C(C(=O)OC2CCCC2)C(c2coc3ccccc3c2=O)C2=C(O)CC(C)(C)CC2=N1 (stereo not given)
AC50 [11]: 97.3 µM (active)

CCCN(CCC)C(S)=NC1CC2C=CC1C2 (stereo not given)
EC50 [4]: > 260 µM (inactive)

CCOC(=O)c1cnc2c(OC)cccc2c1N1CCN(c2ccccc2OC)CC1
EC50 [13]: 11.4 µM (active) | EC50 [14]: > 120 µM (not active) | EC50 [15]: 8.6 µM (active)

COc1ccc(C(=O)NNc2ccccc2)cc1OC
AC50 [11]: 0.825 µM (active) | EC50 [18]: 7.89 µM (active)

COc1ccc(S(=O)(=O)Nc2ccc3c(c2)C(=O)N([C@H](C)CO)C[C@H](C)[C@@H](CN(C)Cc2ccc(C(F)(F)F)cc2)OCCCC[C@H](C)O3)cc1
AC50 (Paired box protein Pax-8): 18.9 µM (active)

Cc1nnc(N2CCC(C(=O)N3CCCCCC3)CC2)c2nn(-c3ccc(Cl)cc3)c(C)c12
CC50 [3]: 21.9 µM (active)

CNc1c2c(nn1C)CCCC2 [TETRYDAMINE]
AC50 (Cytochrome P450 1A2): 39.8 µM (inconclusive) | EC50 (cells [8]): > 350 µM (not active) | EC50 (cells [9]): > 350 µM (not active)

CCCCc1ccc(/C(C)=N/Nc2cc(N3CCOCC3)nc(C)n2)cc1
AC50 [11]: 3.08 µM (active) | EC50 [16]: > 60 µM (not active) | EC50 [17]: 2.06 µM (active)

CN(CC(=O)Nc1cccc(F)c1)C(=O)c1ccc(-c2ccc(Cl)cc2)o1
CC50 [3]: 23.1 µM (active)

O=C(O)c1ccccc1OC(C(=O)Nc1cc(Cl)cc(Cl)c1)c1ccccc1 (stereo not given)
EC50 [4]: > 260 µM (inactive)

CCOC(=O)c1c(C)oc2ccc(NS(=O)(=O)c3ccc4c5c(cccc35)C(=O)N4)cc12
CC50 [3]: 7.08 µM (active)

O=C(NCc1ccc(F)cc1)C(=O)Nc1nc(C23CC4CC(CC(C4)C2)C3)cs1
AC50 [11]: 1.91 µM (active) | EC50 [19]: 0.823 µM (active) | EC50 (Streptococcus): 2.55 µM (active)
